From patent US10407455B2, “Phillygenin glucuronic acid derivative as well as preparation method and application thereof” (priority 2015, dated 2019)
“And” between values parts separate entries of the source, which are not always exact repeats. Equal entries are not always repeated. Where two headings read alike, the source gives them in different places. Marks after values point to notes of the source that are not given here.

How the values were obtained:
[1] = system: enterovirus EV71; experiment: Influences of drugs on virus-induced CPE (antiviral effective rate, MTT), EV71; assay type: cell-based; settings: EV71, Vero cells, 100TCID50, drug at nearly the maximum non-cytotoxic concentration
[2] = system: Parainfluenza virus; experiment: Influences of drugs on virus-induced CPE (antiviral effective rate, MTT), parainfluenza virus; assay type: cell-based; settings: Vero cells, 100TCID50, drug at nearly the maximum non-cytotoxic concentration
[3] = system: parainfluenza virus; assay type: in vivo, Kunming mice
[4] = system: herpes simplex virus I (HSV-I); experiment: Influences of drugs on virus-induced CPE (antiviral effective rate, MTT), HSV-I; assay type: cell-based; settings: Vero cells, 100TCID50, drug at nearly the maximum non-cytotoxic concentration
[5] = system: respiratory syncytial virus (RSV); experiment: Influences of drugs on virus-induced CPE (antiviral effective rate, MTT), RSV; assay type: cell-based; settings: Vero cells, 100TCID50, drug at nearly the maximum non-cytotoxic concentration
[6] = system: Coxsackie virus A16 (CoxA16); experiment: Influences of drugs on virus-induced CPE (antiviral effective rate, MTT), CoxA16; assay type: cell-based; settings: CoxA16, Vero cells, 100TCID50, drug at nearly the maximum non-cytotoxic concentration
[7] = system: influenza virus; assay type: in vivo, Kunming mice; settings: for inhibitory effect on the virus and the mouse virus pneumonia caused by it (in words): in vivo; for Lung index (X ± S) / Lung index inhibition rate (%): mice infected with influenza virus, 5 days, n = 3
[8] = system: Vero cells; settings: 72 hours, MTT, Probit regression
Source text: Performing subculture on Vero cells for 1-2 days to form sheets and have clear boundaries, performing trypsin digestion when stereoscopic impression and diopter are high, completely absorbing digestive juice when needle tip shaped holes occur on cells surfaces, blowing away the cells with milliliters of culture solution, counting, diluting to the quantity of 5×10^7 cells/L with the culture solution (DMEM containing 10% fetal calf serum), inoculating in a 96-well culture plate, and enabling the cells to grow to a single layer.
Cytotoxicity test: drugs are diluted with a maintenance solution (DMEM containing 2% fetal calf serum) according to concentrations shown in Table 1-1, and are used for cytotoxicity determination.

[9] = system: Influenza virus; experiment: Influences of drugs on virus-induced CPE (antiviral effective rate, MTT), influenza virus; assay type: cell-based
[10] = system: adenovirus (AdV); experiment: Influences of drugs on virus-induced CPE (antiviral effective rate, MTT), ADV; assay type: cell-based; settings: Vero cells, 100TCID50, drug at nearly the maximum non-cytotoxic concentration
[11] = system: Coxsackie virus B3 (CVB3); experiment: Influences of drugs on virus-induced CPE (antiviral effective rate, MTT), CVB3; assay type: cell-based; settings: CVB3, Vero cells, 100TCID50, drug at nearly the maximum non-cytotoxic concentration
[12] = system: parainfluenza virus; assay type: in vivo, Kunming mice; settings: lung suspension, mice infected with parainfluenza virus, 5 days, n = 3
[13] = system: influenza virus; assay type: in vivo, Kunming mice; settings: lung suspension, mice infected with influenza virus, 5 days, n = 3
[14] = Influenza virus, Vero cells, 100TCID50, drug at nearly the maximum non-cytotoxic concentration
[15] = High-dose group 10.0 mg/kg/d intragastric
[16] = Low-dose group 2.25 mg/kg/d intragastric
[17] = Medium-dose group 5.0 mg/kg/d intragastric
[18] = mice infected with parainfluenza virus, 13.0 mg/kg/d (Compound I: High-dose group) intragastric, 5 days, n = 3

## COc1cc(C2OCC3C(c4ccc5c(c4)OCO5)OCC23)ccc1OC1OC(C(=O)O)C(O)C(O)C1O [Compound III, 33,34-Methylenedioxy phillygenin-8-O-β-D-glucuronide]
[1]
  antiviral effective rate (ER %): 51.64%
[2]
  antiviral effective rate (ER %): 92.22** %
[3]; mouse, in vivo
  inhibitory effect on the virus and the mouse virus pneumonia caused by it (in words): obvious inhibitory effects
[4]
  antiviral effective rate (ER %): 96.06** %
[5]
  antiviral effective rate (ER %): 86.18** %
[6]
  antiviral effective rate (ER %): 100.00** %
[7]
  inhibitory effect on the virus and the mouse virus pneumonia caused by it (in words): obvious inhibitory effects
[8]
  Maximum non-cytotoxic concentration (TC0): 0.0906 g/L
  Semi-cytotoxic concentration (TC50): 0.435 g/L
[9]; [14]
  antiviral effective rate (ER %): 91.35** %
[10]
  antiviral effective rate (ER %): 22.17* %
[11]
  antiviral effective rate (ER %): 9.63%

## COc1ccc(C2OCC3C(c4ccc(OC5OC(C(=O)O)C(O)C(O)C5O)c(O)c4)OCC23)cc1OC (stereo not shown) [Compound II]
[1]
  antiviral effective rate (ER %): 54.32%
[2]
  antiviral effective rate (ER %): 90.13** %
[3]; mouse, in vivo
  inhibitory effect on the virus and the mouse virus pneumonia caused by it (in words): obvious inhibitory effects
[4]
  antiviral effective rate (ER %): 93.35** %
[5]
  antiviral effective rate (ER %): 81.14** %
[6]
  antiviral effective rate (ER %): 99.25** %
[7]
  inhibitory effect on the virus and the mouse virus pneumonia caused by it (in words): obvious inhibitory effects
[8]
  Maximum non-cytotoxic concentration (TC0): 0.103 g/L
  Semi-cytotoxic concentration (TC50): 0.412 g/L
[9]; [14]
  antiviral effective rate (ER %): 92.74** %
[10]
  antiviral effective rate (ER %): 20.46* %
[11]
  antiviral effective rate (ER %): 11.18%

## COc1cc(C2OCC3C(c4ccc(OC5OC(C(=O)O)C(O)C(O)C5O)c(OC)c4)OCC23)ccc1O (stereo not shown) [Compound I]
[1]
  antiviral effective rate (ER %): 52.15%
[2]
  antiviral effective rate (ER %): 96.24** %
[3]; mouse, in vivo
  Lung index (X ± S): 1.277 ± 0.054 and 1.318 ± 0.028
  Lung index inhibition rate (%): 19.73% and 16.94%
  inhibitory effect on the virus and the mouse virus pneumonia caused by it (in words): obvious inhibitory effects
[3]; mouse, in vivo, 13 mg/kg/day
  Lung index (X ± S): 1.239 ± 0.037
  Lung index inhibition rate (%): 22.26%
[4]
  antiviral effective rate (ER %): 91.23** %
[12]; [15]
  Hemagglutination titer (InX): 19.68 ± 0.638
  Inhibition rate (%) of hemagglutination titer: 38.36%
[12]; [16]
  Hemagglutination titer (InX): 21.62 ± 0.553
  Inhibition rate (%) of hemagglutination titer: 33.61%
[12]; [17]
  Hemagglutination titer (InX): 20.47 ± 0.583
  Inhibition rate (%) of hemagglutination titer: 36.32%
[5]
  antiviral effective rate (ER %): 83.21** %
[6]
  antiviral effective rate (ER %): 100.00** %
[13]; [15]
  Hemagglutination titer (InX): 19.24 ± 0.513
  Inhibition rate (%) of hemagglutination titer: 40.28%
[13]; [16]
  Hemagglutination titer (InX): 22.16 ± 1.270
  Inhibition rate (%) of hemagglutination titer: 31.26%
[13]; [17]
  Hemagglutination titer (InX): 20.37 ± 0.285
  Inhibition rate (%) of hemagglutination titer: 36.32%
[7]; [15]
  Lung index (X ± S): 1.145 ± 0.037
  Lung index inhibition rate (%): 22.82%
[7]; [16]
  Lung index (X ± S): 1.225 ± 0.034
  Lung index inhibition rate (%): 17.85%
[7]; [17]
  Lung index (X ± S): 1.187 ± 0.028
  Lung index inhibition rate (%): 20.03%
[7]
  inhibitory effect on the virus and the mouse virus pneumonia caused by it (in words): obvious inhibitory effects
[8]
  Maximum non-cytotoxic concentration (TC0): 0.106 g/L
  Semi-cytotoxic concentration (TC50): 0.482 g/L
[9]; [14]
  antiviral effective rate (ER %): 95.81** %
[10]
  antiviral effective rate (ER %): 21.26* %
[11]
  antiviral effective rate (ER %): 10.16%

## CCOC(=O)C1=C[C@@H](OC(CC)CC)[C@H](NC(C)=O)[C@@H](N)C1 [Oseltamivir phosphate, reference compound]
[1]
  antiviral effective rate (ER %): 48.65%
[2]
  antiviral effective rate (ER %): 92.11** %
[3]; mouse, in vivo, 19.5 mg/kg/day
  Lung index (X ± S): 1.241 ± 0.046
  Lung index inhibition rate (%): 21.83%
[4]
  antiviral effective rate (ER %): 63.24** %
[12]; 19.5 mg/kg/d intragastric
  Hemagglutination titer (InX): 23.24 ± 1.242
  Inhibition rate (%) of hemagglutination titer: 31.14%
[5]
  antiviral effective rate (ER %): 39.22%
[6]
  antiviral effective rate (ER %): 2.94%
[13]; 19.5 mg/kg/d intragastric
  Hemagglutination titer (InX): 20.47 ± 1.104
  Inhibition rate (%) of hemagglutination titer: 35.26%
[7]; 19.5 mg/kg/d intragastric
  Lung index (X ± S): 1.176 ± 0.045
  Lung index inhibition rate (%): 19.76%
[8]
  Maximum non-cytotoxic concentration (TC0): 0.27 g/L
  Semi-cytotoxic concentration (TC50): 0.834 g/L
[9]; [14]
  antiviral effective rate (ER %): 82.19** %
[10]
  antiviral effective rate (ER %): 12.12%
[11]
  antiviral effective rate (ER %): 1.53%

## COc1cc([C@H]2OC[C@H]3[C@@H]2CO[C@H]3c2ccc(OC)c(OC)c2)ccc1O [Phillygenin]
[1]
  antiviral effective rate (ER %): 32.27%
[2]
  antiviral effective rate (ER %): 94.06** %
[3]; [18]
  Lung index (X ± S): 1.349 ± 0.046
  Lung index inhibition rate (%): 14.56%
[4]
  antiviral effective rate (ER %): 85.36** %
[12]; 13.0 mg/kg/d intragastric
  Hemagglutination titer (InX): 23.63 ± 1.156
  Inhibition rate (%) of hemagglutination titer: 27.75%
[5]
  antiviral effective rate (ER %): 81.41** %
[6]
  antiviral effective rate (ER %): 97.03** %
[13]; 13.0 mg/kg/d intragastric
  Hemagglutination titer (InX): 21.15 ± 1.024
  Inhibition rate (%) of hemagglutination titer: 29.15%
[7]; 13.0 mg/kg/d intragastric
  Lung index (X ± S): 1.208 ± 0.025
  Lung index inhibition rate (%): 11.67%
[8]
  Maximum non-cytotoxic concentration (TC0): 0.012 g/L
  Semi-cytotoxic concentration (TC50): 0.293 g/L
[9]; [14]
  antiviral effective rate (ER %): 88.17** %
[10]
  antiviral effective rate (ER %): 14.25* %
[11]
  antiviral effective rate (ER %): 2.29%

## NC(=O)c1ncn([C@@H]2O[C@H](CO)[C@@H](O)[C@H]2O)n1 [Ribavirin, reference compound]
[1]
  antiviral effective rate (ER %): 4.03** %
[2]
  antiviral effective rate (ER %): 95.13** %
[4]
  antiviral effective rate (ER %): 64.65** %
[12]; 58.5 mg/kg/d intragastric
  Hemagglutination titer (InX): 24.32 ± 1.123
  Inhibition rate (%) of hemagglutination titer: 23.25%
[5]
  antiviral effective rate (ER %): 52.15* %
[6]
  antiviral effective rate (ER %): 0.72%
[13]; 58.5 mg/kg/d intragastric
  Hemagglutination titer (InX): 21.87 ± 1.050
  Inhibition rate (%) of hemagglutination titer: 32.35%
[9]
  antiviral effective rate (ER %): 56.44** %
[10]
  antiviral effective rate (ER %): 0.47%
[11]
  antiviral effective rate (ER %): 12.14%
